Results from patent US20200016086A1, “Nanoparticulate Materials and Methods for Targeting Iron Acquisition and Metabolism for Treating Bacterial Infections” (KENT STATE UNIVERSITY, priority 2017, published 2020).

Key:
[1] = format: physicochemical; conditions: buffer
Protocol: The kinetics of Fe^2+ removal was followed by measuring the decrease of Fe^2+ ion concentration in aqueous solution where the dialysis bag containing the PVP-coated CaPB NPs was immersed. The simultaneous increase of Ca^2+ ion concentration in the same solution was also determined quantitatively by AAS to verify the kinetics (FIG. 5b).

Staphylococcus aureus = test: Bacterial cytotoxicity / growth inhibition of S. aureus in TSB medium (OD600); format: cell-based; conditions: concentration range of 10 μM to 400 μM

Compound | half-life T1/2 of Fe^2+ removal [1] | effect on growth of S. aureus (Staphylococcus aureus)
KCa[Fe^III(CN)6].n H2O [CaPB^III NPs] | 55 min | –
[Ca+2].[Cl-].[Cl-] [CaCl2] | – | no effect on growth
